# Tests used:
# [1] = test system: isolated rat aortic rings; assay: Vasorelaxation in vitro on isolated rat aortic rings precontracted with phenylephrine; type: cell-based; conditions: rat aortic rings precontracted with 2×10^-7 mol/l phenylephrine; cumulative addition; n = 3-6; read-out: EC50 (concentration which leads to a 50% relaxation of the precontracted vascular ring)
# Source text: The vasorelaxant effect of the compounds of the general formula I was investigated in vitro on isolated rat aortic rings. For this purpose, rats were anaesthetized and then the thoracic aorta was removed, freed of adipose and adventitious tissue and divided into annular segments about 5 mm wide. The aortic rings were transferred into temperature-controlled baths containing Tyrodes' solution through which 5% CO2 /95% O2 was passed, and were subjected to a preload of 2 g. While continuously recording the change in force, the vascular rings were precontracted after equilibration with 2×10^-7 mol/l phenylephrine for 90 minutes. After a stable contraction level was reached, the nitrato compounds were cumulatively added to the vessel bath liquid, the next higher concentration in each case being added only after a stable relaxation level had been reached. The concentration of the particular compound which leads to a 50% relaxation of the precontracted vascular ring (EC50) was found from the resulting concentration-effect plots. Table 1 contains the EC50 values found in this way for selected exemplary compounds.
# [2] = continuous intake of high doses; classical organic nitrates and EP compounds; cited from earlier work
# [3] = test system: arterial, central venous and pulmonary artery blood pressure in a conscious dog; assay: Effects on blood pressure in a conscious dog; type: in vivo; parameters: unit not given here; conditions: intravenous, 13.4 μg/kg disulphide compounds
# Experimental: The SAP was measured using a tip catheter transducer inserted into the aorta via the femoral artery, and the CVP and the PAP were measured using a Swan-Ganz catheter which was inserted via the left jugular vein and whose catheter tips were advanced as far as the pulmonary artery and the right atrium respectively and through whose lumens the particular pressure was passed to Statham® pressure transducers. To quantify the lowering of blood pressure elicited by the compound according to the invention, the areas under the curves (AUC) of the recorded changes in blood pressure were determined. Table 2 contains the AUC values for the relevant lowering of blood pressure after intravenous administration of 13.4 μg/kg of the disulphide compounds according to the invention and after intravenous administration of 26.8 μg/kg isosorbide 5-mononitrate (5-ISMN).
smiles,measurement,setting,value
"CC(C)(C)OC(=O)[C@H](CSSC[C@H](NC(=O)C(C)(C)CO[N+](=O)[O-])C(=O)OC(C)(C)C)NC(=O)C(C)(C)CO[N+](=O)[O-] [N,N'-di(3-nitratopivaloyl)-L-cystine di-tert.-butyl ester]",EC50,[1],59 µM
O=[N+]([O-])OCC(CO[N+](=O)[O-])O[N+](=O)[O-] [glycerol trinitrate],nitrate tolerance (attenuation of the effect),[2],"distinct attenuation of the effect, nitrate tolerance"
"CC(C)(CO[N+](=O)[O-])C(=O)N[C@@H](CSSC[C@H](NC(=O)C(C)(C)CO[N+](=O)[O-])C(=O)N1CCCCC1)C(=O)N1CCCCC1 [N,N'-di(3-nitratopivaloyl)-L-cystinedipiperidide]","AUC (CVP), lowering of central venous blood pressure",[3],36.9
same,"AUC (PAP), lowering of pulmonary artery blood pressure",[3],18.5
same,"AUC (SAP), lowering of systolic arterial blood pressure",[3],10.4
same,EC50,[1],100 µM
"CCOC(=O)[C@H](CSSC[C@H](NC(=O)C(C)(C)CO[N+](=O)[O-])C(=O)OCC)NC(=O)C(C)(C)CO[N+](=O)[O-] [N,N'-di(3-nitratopivaloyl)-L-cystine diethyl ester]","AUC (CVP), lowering of central venous blood pressure",[3],85.7
same,"AUC (PAP), lowering of pulmonary artery blood pressure",[3],12.0
same,"AUC (SAP), lowering of systolic arterial blood pressure",[3],94.1
same,EC50,[1],1.5 µM
"CNC(=O)[C@H](CSSC[C@H](NC(=O)C(C)(C)CO[N+](=O)[O-])C(=O)NC)NC(=O)C(C)(C)CO[N+](=O)[O-] [N,N'-di(3-nitratopivaloyl)-L-cystine-di(N-methylamide)]","AUC (CVP), lowering of central venous blood pressure",[3],33.7
same,"AUC (PAP), lowering of pulmonary artery blood pressure",[3],3.5
same,"AUC (SAP), lowering of systolic arterial blood pressure",[3],41.9
same,EC50,[1],24 µM
"O=[N+]([O-])O[C@@H]1CO[C@H]2[C@@H]1OC[C@@H]2O [Example 5-ISMN, isosorbide 5-mononitrate, reference compound]",nitrate tolerance (attenuation of the effect),[2],"distinct attenuation of the effect, nitrate tolerance"
"CC(C)(CO[N+](=O)[O-])C(=O)N[C@@H](CSSC[C@H](NC(=O)C(C)(C)CO[N+](=O)[O-])C(N)=O)C(N)=O [N,N'-di(3-nitratopivaloyl)-L-cystinediamide]","AUC (CVP), lowering of central venous blood pressure",[3],46.9
same,"AUC (PAP), lowering of pulmonary artery blood pressure",[3],28.1
same,"AUC (SAP), lowering of systolic arterial blood pressure",[3],55.3
same,EC50,[1],30 µM
"CC(C)(CO[N+](=O)[O-])C(=O)N[C@@H](CSSC[C@H](NC(=O)C(C)(C)CO[N+](=O)[O-])C(=O)O)C(=O)O [N,N'-di(3-nitratopivaloyl)-L-cystine]","AUC (CVP), lowering of central venous blood pressure",[3],67.9
same,"AUC (PAP), lowering of pulmonary artery blood pressure",[3],2.7
same,"AUC (SAP), lowering of systolic arterial blood pressure",[3],17.3
same,EC50,[1],120 µM

# Reference: US5661129A, “Organic nitrates containing a disulfide group as cardiovascular agents” (Schwarz Pharma AG, priority 1993, dated 1997)
